Patent publication US20260083708A1, “IL-17 MODULATORS AND USES THEREOF” (NNOCARE PHARMA INC., priority 2024, published 2026)

Legend:
IL-17AA and IL-17RA = target: T1, IL-17AA and IL-17RA (Homo sapiens, UniProt Q16552); test: Competitive inhibition of human IL-17AA and IL-17RA binding (HTRF); conditions: recombinant IL-17AA (His-tag) and IL-17RA (hFc-tag); read-out: IC50 for Inhibiting IL-AA/IL-RA Binding
T1 construct: purchased Sino Biological 12047-H07B (IL-17AA); 10895-H02H (IL-17RA)
T1 sequence (Q16552 24-155): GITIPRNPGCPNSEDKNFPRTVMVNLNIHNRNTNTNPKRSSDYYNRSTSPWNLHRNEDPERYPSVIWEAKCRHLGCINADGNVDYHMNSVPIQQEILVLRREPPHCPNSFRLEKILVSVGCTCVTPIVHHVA
Procedure, shortened: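 His-IL-17AA (1 nM) premixed 1 h with anti-His-Tb (0.4 nM), and Fc-IL-17RA (1 nM) with anti-IgG-d2 (1 μg/mL); these are pre-mix levels. Compounds, diluted from 10 μM, preincubated 2 h RT with IL-17AA mix; IL-17RA mix then added, 20 min. 665/615 ratio vs no-compound and no-IL-17AA controls; IC50 by 4-parameter fit.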

[1] = tested on: IL-17AA-induced IL-17 signaling pathway; test: Inhibition of IL-17AA-induced IL-17 signaling pathway in HEK-Blue IL-17 reporter cells (SEAP); type: cell-based; conditions: Homo sapiens; HEK-Blue IL-17 cells, IL-17AA 2.5 ng/mL, 20 hours; read-out: IC50 for Inhibiting IL-AA Signaling
Procedure, shortened: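 HEK-Blue IL-17 cells (HEK293 expressing human IL-17RA/RC, ACT1 and NF-κB/AP-1-driven SEAP), 10,000/well, pre-incubated with compound (serial dilution from 10 μM) for 1 h at 37 °C, then stimulated with IL-17AA at 2.5 ng/mL final for 20 h. SEAP in supernatant read with Quanti-Blue at 620 nm; IC50 by 4-parameter fit.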

[2] = tested on: IL-17AF-induced IL-17 signaling pathway; test: Inhibition of IL-17AF-induced IL-17 signaling pathway; type: cell-based; conditions: Homo sapiens; IL-17AF used instead of IL-17AA; read-out: IC50 for Inhibiting IL-AF Signaling
Procedure, shortened: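 HEK293-derived HEK-Blue IL-17 cells (IL-17RA/RC, ACT1, NF-κB/AP-1-driven SEAP) preincubated 1 hour at 37° C with serially diluted compound from 10 μM, then stimulated with IL-17AF for 20 hours. SEAP read colorimetrically at 620 nm; IC50 from 4-parameter fit of % inhibition.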

| Structure (SMILES) | IC50 (IL-17AA and IL-17RA) | IC50 [1] | IC50 [2] |
| --- | --- | --- | --- |
| [2H]C([2H])([2H])n1nccc1C(=O)N[C@@H](C(=O)Nc1ccc([C@H](C)[C@@H](NC(=O)CC)c2ncnn2CC2CC2)cc1F)C(C1CC1)C1CC1 [Compound 85, N-((R)-1,1-dicyclopropyl-3-((4-((1R,2S)-1-(1-(cyclopropylmethyl)-1H-1,2,4-triazol-5-yl)-1-propionamidopropan-2-yl)-2-fluorophenyl)amino)-3-oxopropan-2-yl)-1-(methyl-d3)-1H-pyrazole-5-carboxamide] | 165 nM | 539 nM | 810 nM |
| COCC(=O)N[C@@H](c1nncn1CC1CC1)[C@@H](C)c1ccc(NC(=O)[C@@H](NC(=O)c2ccnn2C(C)C)C(C2CC2)C2CC2)c(F)c1 [Compound 4, N-((S)-1,1-dicyclopropyl-3-((4-((1R,2S)-1-(4-(cyclopropylmethyl)-4H-1,2,4-triazol-3-yl)-1-(2-methoxyacetamido)propan-2-yl)-2-fluorophenyl)amino)-3-oxopropan-2-yl)-1-isopropyl-1H-pyrazole-5-carboxamide] | 10 nM | 17 nM | 20 nM |
| CCC(=O)N[C@@H](c1ncccc1CC1CC1)[C@@H](C)c1ccc(NC(=O)[C@@H](NC(=O)c2ccnn2CC)C(C2CC2)C2CC2)c(F)c1 [Compound 82, N-((S)-1,1-dicyclopropyl-3-((4-((1R,2S)-1-(3-(cyclopropylmethyl)pyridin-2-yl)-1-propionamidopropan-2-yl)-2-fluorophenyl)amino)-3-oxopropan-2-yl)-1-ethyl-1H-pyrazole-5-carboxamide] | 5.6 nM | 10 nM | 8.4 nM |
| COCC(=O)N[C@@H](c1ncnn1CC1CC1)[C@@H](C)c1ccc(NC(=O)[C@@H](NC(=O)c2ccnn2C(C)C)C(C2CC2)C2CC2)c(F)c1 [Compound 33, N-((S)-1,1-dicyclopropyl-3-((4-((1R,2S)-1-(1-(cyclopropylmethyl)-1H-1,2,4-triazol-5-yl)-1-(2-methoxyacetamido)propan-2-yl)-2-fluorophenyl)amino)-3-oxopropan-2-yl)-1-isopropyl-1H-pyrazole-5-carboxamide] | 7.9 nM | 3.1 nM | 7.7 nM |
| COCC(=O)N[C@@H](c1ncnn1CCN(C)C)[C@@H](C)c1ccc(NC(=O)[C@@H](NC(=O)c2nonc2C)C(C2CC2)C2CC2)c(F)c1 [Compound 61, N-((S)-1,1-dicyclopropyl-3-((4-((1R,2S)-1-(1-(2-(dimethylamino)ethyl)-1H-1,2,4-triazol-5-yl)-1-(2-methoxyacetamido)propan-2-yl)-2-fluorophenyl)amino)-3-oxopropan-2-yl)-4-methyl-1,2,5-oxadiazole-3-carboxamide] | 12 nM | 39 nM | 74 nM |
| CCn1nccc1C(=O)N[C@H](C(=O)Nc1ccc([C@H](C)[C@@H](NC(=O)[C@H](C)OC)c2nncn2CC2CC2)cc1F)C(C1CC1)C1CC1 [Compound 16, N-((S)-1,1-dicyclopropyl-3-((4-((1R,2S)-1-(4-(cyclopropylmethyl)-4H-1,2,4-triazol-3-yl)-1-((S)-2-methoxypropanamido)propan-2-yl)-2-fluorophenyl)amino)-3-oxopropan-2-yl)-1-ethyl-1H-pyrazole-5-carboxamide] | 6.3 nM | 6.3 nM | 13 nM |
| CCn1nccc1C(=O)N[C@H](C(=O)Nc1ccc([C@H](C)[C@@H](NC(=O)COC)c2ncnn2CC2CC2)cc1OC)C(C1CC1)C1CC1 [Compound 45, N-((S)-1,1-dicyclopropyl-3-((4-((1R,2S)-1-(1-(cyclopropylmethyl)-1H-1,2,4-triazol-5-yl)-1-(2-methoxyacetamido)propan-2-yl)-2-methoxyphenyl)amino)-3-oxopropan-2-yl)-1-ethyl-1H-pyrazole-5-carboxamide] | 153 nM | 194 nM | 1210 nM |
| CCC(=O)N[C@@H](c1nncn1CC1CC1)[C@@H](C)c1ccc(NC(=O)[C@@H](NC(=O)c2ccnn2CC)C(C2CC2)C2CC2)c(F)c1 [Compound 1, N-((S)-1,1-dicyclopropyl-3-((4-((1R,2S)-1-(4-(cyclopropylmethyl)-4H-1,2,4-triazol-3-yl)-1-propionamidopropan-2-yl)-2-fluorophenyl)amino)-3-oxopropan-2-yl)-1-ethyl-1H-pyrazole-5-carboxamide] | 27 nM | 13 nM | 49 nM |
| CCn1nccc1C(=O)N[C@H](C(=O)Nc1ccc([C@H](C)[C@@H](NC(=O)COC)c2nccn2CC2CC2)cc1F)C(C1CC1)C1CC1 [Compound 38, N-((S)-1,1-dicyclopropyl-3-((4-((1R,2S)-1-(1-(cyclopropylmethyl)-1H-imidazol-2-yl)-1-(2-methoxyacetamido)propan-2-yl)-2-fluorophenyl)amino)-3-oxopropan-2-yl)-1-ethyl-1H-pyrazole-5-carboxamide] | 7.5 nM | 2.9 nM | 7 nM |

These reach a lower IC50 (IL-17AA and IL-17RA). Values come first.

| IC50 (IL-17AA and IL-17RA) | IC50 [1] | IC50 [2] | Structure (SMILES) |
| --- | --- | --- | --- |
| 5.2 nM | 3.9 nM | 8.9 nM | COCC(=O)N[C@@H](c1nncn1CC1CC1)[C@@H](C)c1ccc(NC(=O)[C@@H](NC(=O)C(F)(F)c2ccc(OC)nc2)C(C2CC2)C2CC2)c(F)c1 [Compound 7, (S)-3,3-dicyclopropyl-N-(4-((1R,2S)-1-(4-(cyclopropylmethyl)-4H-1,2,4-triazol-3-yl)-1-(2-methoxyacetamido)propan-2-yl)-2-fluorophenyl)-2-(2,2-difluoro-2-(6-methoxypyridin-3-yl)acetamido)propanamide] |
| 2.2 nM | 1.8 nM | 3.7 nM | CCn1nccc1C(=O)N[C@H](C(=O)Nc1ccc([C@H](C)[C@@H](NC(=O)N(C)C2CC2)c2nncn2CC2CC2)cc1F)C(C1CC1)C1CC1 [Compound 21, N-((S)-1,1-dicyclopropyl-3-((4-((1R,2S)-1-(3-cyclopropyl-3-methylureido)-1-(4-(cyclopropylmethyl)-4H-1,2,4-triazol-3-yl)propan-2-yl)-2-fluorophenyl)amino)-3-oxopropan-2-yl)-1-ethyl-1H-pyrazole-5-carboxamide] |
| 3.7 nM | 2 nM | 2.2 nM | CCn1nccc1C(=O)N[C@H](C(=O)Nc1ccc([C@H](C)[C@@H](NC(=O)COC)c2ncnn2CC(C)C)cc1F)C(C1CC1)C1CC1 [Compound 36, N-((S)-1,1-dicyclopropyl-3-((2-fluoro-4-((1R,2S)-1-(1-isobutyl-1H-1,2,4-triazol-5-yl)-1-(2-methoxyacetamido)propan-2-yl)phenyl)amino)-3-oxopropan-2-yl)-1-ethyl-1H-pyrazole-5-carboxamide] |
| 1.1 nM | 6.1 nM | 8.1 nM | [2H]C([2H])([2H])C([2H])([2H])C(=O)N[C@@H](c1ncnn1CC1CC1)[C@@H](C)c1ccc(NC(=O)[C@@H](NC(=O)c2nonc2C)C(C2CC2)C2CC2)c(F)c1 [Compound 75, N-((S)-1,1-dicyclopropyl-3-((4-((1R,2S)-1-(1-(cyclopropylmethyl)-1H-1,2,4-triazol-5-yl)-1-(propanamido-2,2,3,3,3-d5)propan-2-yl)-2-fluorophenyl)amino)-3-oxopropan-2-yl)-4-methyl-1,2,5-oxadiazole-3-carboxamide] |
| 2.5 nM | 4 nM | 8.3 nM | CCOCC(=O)N[C@@H](c1ncnn1CC1CC1)[C@@H](C)c1ccc(NC(=O)[C@@H](NC(=O)c2nonc2C)C(C2CC2)C2CC2)c(F)c1 [Compound 63, N-((S)-1,1-dicyclopropyl-3-((4-((1R,2S)-1-(1-(cyclopropylmethyl)-1H-1,2,4-triazol-5-yl)-1-(2-ethoxyacetamido)propan-2-yl)-2-fluorophenyl)amino)-3-oxopropan-2-yl)-4-methyl-1,2,5-oxadiazole-3-carboxamide] |
| 1.4 nM | 5 nM | 3.8 nM | [2H]C([2H])([2H])OCC(=O)N[C@@H](c1ncnn1CC1CC1)[C@@H](C)c1ccc(NC(=O)[C@@H](NC(=O)c2nonc2C)C(C2CC2)C2CC2)c(F)c1 [Compound 58, N-((S)-1,1-dicyclopropyl-3-((4-((1R,2S)-1-(1-(cyclopropylmethyl)-1H-1,2,4-triazol-5-yl)-1-(2-(methoxy-d3)acetamido)propan-2-yl)-2-fluorophenyl)amino)-3-oxopropan-2-yl)-4-methyl-1,2,5-oxadiazole-3-carboxamide] |
| 5.4 nM | 31 nM | 61 nM | CCC(=O)N[C@@H](c1ncnn1CC1CC1)[C@@H](C)c1ccc(NC(=O)[C@@H](NC(=O)c2nsnc2C)C(C2CC2)C2CC2)c(F)c1 [Compound 74, N-((S)-1,1-dicyclopropyl-3-((4-((1R,2S)-1-(1-(cyclopropylmethyl)-1H-1,2,4-triazol-5-yl)-1-propionamidopropan-2-yl)-2-fluorophenyl)amino)-3-oxopropan-2-yl)-4-methyl-1,2,5-thiadiazole-3-carboxamide] |
